Measurements published in patent US10058524B2, “Methods for improving joint function” (Tersus Life Sciences, LLC, priority 2015, dated 2018).

What was measured:
Type in all cases: in vivo
[1] = tested on: Human Subjects; assay: Stepmill Protocol: time of onset and offset of knee discomfort
Procedure: The study duration was thirty-seven (37) days with a total of 4 visits per subject. The initial screening visit (Visit 1) occurred 7 days prior to the initiation of the study (Day −7). Subjects arrived in the clinic having fasted for 10 hours in preparation for Visit 1. Subjects underwent the informed consent process and were screened for the presence of all the inclusion criteria and the absence of all the exclusion criteria. The screening process also included taking a detailed medical history, recording prior and concomitant medications, performing a physical examination, and documenting vital signs, and anthropometric measures. To determine eligibility, subjects continuously used the Stepmill at a set rate for 10 minutes until they complained of knee discomfort (in at least one knee) that scored at least 5 on an 11 point numeric pain rating scale. The time of onset of joint pain was recorded. Subjects were also instructed to inform the clinician when their discomfort began to subside and when their discomfort completely resolved.
Baseline assessments included evaluating the pain or discomfort experienced by subjects during exercise testing. Subjects were instructed to exercise on a StepMill® model 7000PT (StairMaster® Health & Fitness Products, Inc., Kirkland, Wash.) at a set rate (Level 4) for 10 minutes. The following knee discomfort measures were recorded from the beginning of the Stepmill test: (1) time of onset of initial joint pain; (2) time of onset of maximum joint pain; (3) time at which initial improvement in knee joint pain was achieved; and (4) time of complete recovery from knee joint pain. Subjects that reported a discomfort level of 5 on an 11 point (0-10) Likert scale in at least one knee within the 10-minute period were selected. Once the requisite pain level was achieved, the subject was asked to continue stepping for an additional two minutes in order to record the maximum pain level reached before disembarking from the stepmill. Subjects who experienced a pain score of 5 (or greater) within one minute of starting the stress test were excluded.
(§1) Subjects who met all of the study inclusion criteria and none of the exclusion criteria were randomly assigned to either the C16:1n7-palmitoleate-treatment or placebo groups. The C16:1n7-palmitoleate composition included palmitoleic acid, gelatin, glycerin and purified water whereas the placebo included medium chain triglycerides. […] The subjects and the clinical staff were unaware of what group a particular subject was allocated to. Baseline assessments for joint pain and knee range of motion in a subject were obtained via the 6-Minute Timed Walk, Stepmill Protocol, and goniometry. At the end of the visit, subjects were provided with a 7-day supply of the C16:1n7-palmitoleate composition or placebo and daily dosing diaries. Subjects were instructed to ingest a single capsule of the C16:1n7-palmitoleate composition or the placebo per day.
(§2) Subjects returned to the clinic at Visit 3 (Day 7) for repeat assessments of joint pain, range of motion, activity levels and health-related quality of life scores. After the performance-based physical functioning measures were evaluated, the subjects were provided with a 23-day supply of the C16:1n7-palmitoleate composition or placebo. Subjects returned to the clinic at Visit 4 (Day 30), which marked the end of the study, for reevaluation of the performance-based physical functioning measures.
The time of onset of discomfort or pain level refers to the time at which the minimum or maximum discomfort or pain level is reached. The time of onset of minimum discomfort or pain level refers to the time at which minimum discomfort or pain level is reached. The time of onset of maximum discomfort or pain level refers to the time at which maximum discomfort or pain level is reached.
As used herein, the time of offset of discomfort is the time at which a level of relief is reached after performing the Stepmill Protocol described herein. […]

[2] = tested on: Human Subjects; assay: 6-Minute Timed Walk; details: between treated and placebo groups, any time point
Procedure: Other performance-based physical functioning measures including the 6-Minute Timed Walk and Knee Range of Motion (ROM) were also performed by the subjects. In the 6-Minute Timed Walk, subjects walked up and down a hallway for 6 minutes and were instructed to walk as rapidly as possible within their comfort zone, and as rapidly as possible without causing themselves any pain.
Subjects who met all of the study inclusion criteria and none of the exclusion criteria were randomly assigned to either the C16:1n7-palmitoleate-treatment or placebo groups. The C16:1n7-palmitoleate composition included palmitoleic acid, gelatin, glycerin and purified water whereas the placebo included medium chain triglycerides. […] The subjects and the clinical staff were unaware of what group a particular subject was allocated to. Baseline assessments for joint pain and knee range of motion in a subject were obtained via the 6-Minute Timed Walk, Stepmill Protocol, and goniometry. […]
Subjects returned to the clinic at Visit 3 (Day 7) for repeat assessments of joint pain, range of motion, activity levels and health-related quality of life scores. After the performance-based physical functioning measures were evaluated, the subjects were provided with a 23-day supply of the C16:1n7-palmitoleate composition or placebo. […]

[3] = tested on: Human Subjects; assay: Knee range of motion by goniometry (extension and flexion)
Source text: (§3) Goniometry was used to measure knee range of motion. To measure Knee Extension, subjects were instructed to extend the left or right knee to full extension without changing the position of their pelvis and lumbar spine. An inclinometer was placed along the subject's shin so as to document the range of motion in degrees. To measure Knee Flexion, subjects were asked to lie on their stomach with their shins off the end of the table, and were instructed to fully extend their knees. The subject was then asked to actively flex his/her knee to a full flexion position. The following scales and questionnaires: Stanford Exercise Behavior Scale—Stretching and Aerobics, Knee-related QOL subscale of KOOS Knee Survey, SF-12, and Knee Discomfort Improvement Scale were completed by the subjects at the initial screening.
as §1, §2
Goniometric measurements, which record the active and passive range of motion in joints like the knee, are often used in evaluating joint function.

[4] = tested on: Human Subjects; assay: Stanford Exercise Behavior Scale - Stretching and Aerobics
Source text: as §3
Experimental endpoints included Change in Time of Onset and Offset of Discomfort, Changes in 6-Minute Timed Walk, Change in Knee Range of Motion as measured by goniometry including Left and Right Knee Extension and Left and Right Knee Flexion. Stanford Exercise Scale—Stretching and Aerobics was used to measure the effect of the C16:1n7-palmitoleate composition on physical activity levels.

[5] = tested on: Human Subjects; assay: SF-12 survey (physical and mental component scores)
Source text: as §3
Quality of life (QOL) was assessed using Change in SF-12 and Knee-related QOL subscale of KOOS Knee Survey, and Knee Discomfort Improvement Scale. The SF-12 is a multipurpose short form survey with 12 questions, all selected from the SF-36 Health Survey. The questions were combined, scored, and weighted to create two scales that provide glimpses into the subject's mental and physical functioning and overall health-related-quality of life. Physical and Mental Health Component Summary Scores were computed using the scores of the twelve questions and a range from 0 to 100, where zero corresponds to the lowest level of health measured by the scales and 100 corresponds to the highest level of health.

[6] = tested on: Human Subjects; assay: Knee-related QOL subscale of KOOS Knee Survey
Source text: as §3
Knee injury and Osteoarthritis Outcome Score (KOOS) is an instrument to assess the patients' opinion about their knee and knee-associated problems. For this study, only the Knee Related QOL subscale was used.

[7] = tested on: Human Subjects; assay: Knee Discomfort Improvement Scale; details: group n=20
Source text: as §3
Knee Discomfort Improvement Scale refers to the response to the question “Is your overall knee discomfort improving?”, rated using a 3-point scale where zero is “Not at All”, 1 is “Moderately” and 2 is “Definitely”.

[8] = between treated and placebo groups, any time point
[9] = within-group, baseline to any time point

In the case of `CCCCCC/C=C\CCCCCCCC(=O)O` [C16:1n7-palmitoleate, palmitoleic acid], the “average time to report maximum discomfort or pain level” value ([1]; after 30 days, placebo 5.43±2.53 minutes) is reported as 6.89 ± 2.59 min, the “time of onset of minimum discomfort or pain level” value ([1]; between treated and placebo groups) is reported as “no statistically significant difference” and the “time of offset of maximum discomfort” value [1, 8] is reported as “no statistically significant difference”. The “time of offset of minimum discomfort” value [1, 8] was “no statistically significant difference”, the “changes in the time of onset of maximum discomfort from Day 0 to Day 30” value ([1]; between treated and placebo groups, p=0.007) was “statistically significant difference” and the “time to reach maximum discomfort or pain level” value ([1]; between treated and placebo groups, treated taking more time) was “significantly different”. For the same compound, the “time of onset of minimum discomfort or pain level” value ([1]; within-group, 7 days vs Day 0, p=0.013, one capsule per day) was “statistically significant increase”, the “time of onset of minimum discomfort or pain level” value ([1]; within-group, 30 days vs Day 0, p=0.005, one capsule per day) was “statistically significant increase” and the “time of onset of maximum discomfort” value ([1]; within-group, 30 days vs Day 0, p=0.012) was “significantly increased”. For the same compound, the “time of offset of maximum discomfort” value ([1]; within-group, 30 days vs Day 0, p=0.014) was “decrease”, the “time of minimum offset of discomfort” value [1, 9] was “no statistically significant changes” and the “distance covered during the 6-minute timed walk” value [2] was “no statistically significant difference”. For the same compound, the “change in left knee flexion” value ([3]; after 7 days of supplementation) was “apparent”, the right knee extension [3, 8] was “no statistically significant difference” and the right knee flexion [3, 8] was “no statistically significant difference”. For the same compound, the left knee flexion ([3]; within-group, 30 days vs Day 0, p=0.015) was “significant increase”, the right knee flexion ([3]; within-group, 30 days vs Day 0, p=0.019) was “significant increase” and the left knee extension ([3]; within-group, 30 days vs Day 0, p=0.028) was “significant increase”. For the same compound, the right knee extension [3, 9] was “no statistically significant changes”, the “average minutes per week for aerobic exercise” value [4, 8] was “no statistically significant differences” and the “average minutes per week for stretching exercise” value [4, 8] was “no statistically significant differences”. The time spent stretching ([4]; within-group, after 30 days of supplementation, p=0.066) was “non-statistically significant yet clinically significant increase”, the “average minutes per week for aerobic exercise” value [4, 9] was “no statistically significant changes” and the “mental component score of the SF-12 survey” value [5, 8] was “no statistically significant differences”. The “physical component score of the SF-12 survey” value [5, 8] was “no statistically significant differences”, the “increase in the physical component score of the SF-12 survey” value ([5]; within-group, 30 days vs Day 0, p=0.031) was 8.93% and the “mental component score of the SF-12 survey” value [5, 9] was “no statistically significant changes”. The “knee-related quality of life scores” value [6, 8] was “no statistically significant differences”, the “knee-related quality of life scores” value ([6]; within-group, Day 7 vs Day 0, p=0.002) was “increase” and the “knee-related quality of life scores” value ([6]; within-group, Day 30 vs Day 0, p<0.001) was “increase”. For the same compound, the “number of subjects that reported moderate improvements in knee discomfort” value ([7]; Day 0 (baseline)) was 4, the “number of subjects that reported definite improvements in knee discomfort” value ([7]; Day 7) was 2 and the “number of subjects that reported moderate improvements in knee discomfort” value ([7]; Day 7) was 10. The “number of subjects that reported moderate improvements in knee discomfort” value ([7]; Day 30) was 8 subjects and the “number of subjects that reported definite improvements in knee discomfort” value ([7]; Day 30, comparable to placebo) was 8.
